Results on three molecules are retold here after US8450362B2, “Amidine-containing compounds useful as muscarinic receptor antagonists” (Theravance, Inc., priority 2007, dated 2013).

The subject of assay [1] is MCh bronchoconstrictor response. In words: Rat Einthoven assay (bronchoprotection, inhaled dosing). In kind it is in vivo. The following applies: inhalation; for ID50 (bronchoprotection): 1.5 hrs post-dose. On the procedure:
All test compounds are diluted in sterile water and are dosed via the inhalation route (IH). The rats (Sprague-Dawley, male, 250-350 g) are exposed to the aerosol generated from an LC Star Nebulizer Set and driven by a mixture of gases (5% CO2/95% atmospheric air). Each test compound solution is nebulized over a 10 minute time period in a pie shaped dosing chamber capable of holding six rats. At predetermined time points after inhalation of compound, the Einthoven assay is performed.
Thirty minutes prior to the start of pulmonary evaluation, the animals are anesthetized with inactin (thiobutabarbital, 120 mg/kg IP). The jugular vein is catheterized with saline filled polyethylene catheters (PE-50) and used to infuse MCh. The trachea is then dissected and cannulated with a 14G needle and used for rat ventilation during pulmonary evaluation. Once surgery is complete, rats are ventilated using a piston respirator set at a stroke volume of 1 ml/100 g body weight but not exceeding 2.5 ml volume, and at a rate of 90 strokes per minute.
The changes in pressure that occur with each breath are measured. Baseline values are collected for at least 2.5 minutes then rats are challenged non-cumulatively with 2-fold incremental increases of the bronchoconstrictor MCh (5, 10, 20, 40 and 80 μg/ml). The MCh is infused for 2.5 minutes from a syringe pump at a rate of 2 mL/kg/min. The animals are euthanized upon completion of the studies.
Changes in ventilation pressure (cm H2O) in treated animals are expressed as % inhibition of MCh response relative to control animals.
Standard muscarinic antagonists were evaluated in the rat Einthoven assay 1.5 hrs post-dose.
Standards tiotropium and ipratropium were also evaluated 24 hr and/or 6 hr post-dose in the rat Einthoven assay. […] The observed loss of activity at this time point (6 hr) is consistent with its relatively short duration of action in the clinic.

The test system of assay [2] is pilocarpine-induced salivation. Kind of assay: Rat antisialagogue assay. The assay is classed as in vivo. The following applies: evaluated at 1, 6 and 24 hr post-dose. The method, then:
Rats (Sprague-Dawley, male, 250-350 g) are dosed, anesthetized and cannulated as described for Assay 3. At predetermined time points and after surgery, animals are placed on their dorsal side at a 20° incline with their head in a downward slope. A pre-weighed gauze pad is inserted in the animal's mouth and the muscarinic agonist pilocarpine (PILO) (3 mg/kg, iv.) is administered. Saliva produced during 10 minutes post-PILO is measured gravimetrically by determining the weight of the gauze pad before and after PILO. Antisialagogue effects are expressed as % inhibition of salivation relative to control animals.
The rat antisialagogue assay was developed to assess systemic exposure and calculate the lung selectivity index (LSI) of test compounds. The standard, tiotropium, was evaluated in this model at 1, 6, and 24 hr post-dose. […] This finding is consistent with the peak effects observed in the Einthoven assay. This model is a modified version of the procedure described in Rechter, “Estimation of anticholinergic drug effects in mice by antagonism against pilocarpine-induced salivation” Ata Pharmacol Toxicol 24:243-254 […]. The mean weight of saliva in vehicle-treated animals, at each pre-treatment time, is calculated and used to compute % inhibition of salivation, at the corresponding pre-treatment time, at each dose. […]

Consider `C[N+]1(C)CCC(OC(=O)C(O)(c2ccccc2)C2CCCC2)C1` (centres unmarked) [glycopyrrolate], for which the “ID50 (bronchoprotection)” value in assay [1] stood at 15 µg/mL.

Regarding `CC(C)[N+]1(C)[C@@H]2CC[C@H]1C[C@@H](OC(=O)C(CO)c1ccccc1)C2` (some centres unmarked) [ipratropium], the “fold less potent 6-hr post-dose compared to 1.5 hr potency” value in assay [1] (10 and 30 μg/ml, 6 hr vs 1.5 hr) is recorded as “about 3 fold”. In addition, the “ID50 (bronchoprotection)” value in assay [1] amounted to 4.4 µg/mL.

Consider `C[N+]1(C)[C@@H]2C[C@@H](OC(=O)C(O)(c3cccs3)c3cccs3)C[C@H]1[C@@H]1O[C@@H]12` [tiotropium], for which, in assay [1], the “6 hr versus 24 hr potency values” is on record as “not significantly different from each other” and the “ID50 (bronchoprotection)” value amounted to 6 µg/mL. In addition, the “fold more potent at 6 hr and 24 hr compared to 1.5 hr potency” value in assay [1] (6 hr and 24 hr vs 1.5 hr) is on record as “about 2 fold”. The “time of peak bronchoprotection post-dose” value in assay [1] (slow onset of effect) turned out to be 6 h. Also, in assay [2], the “time post dose of greatest potency at inhibiting pilocarpine-induced salivation” value came to 6 h.
